Test results taken from patent publication US4650907A, “Nonaromatic fluoroallylamine MAO inhibitors” (Merrell Dow Pharmaceuticals Inc., priority 1985, dated 1987).

Columns and labels:
[1] = test system: MAO; details: selective at lower dosages, less selective at higher dosages; cited from earlier work
[2] = biological target: T1, MAO-B (Rattus norvegicus, UniProt P19643); assay: Inhibition of MAO - in vitro, partially purified mitochondria from rat brain, 14C-phenethylamine (PEA) substrate (MAO-B); type: biochemical; details: substrate 14C-phenethylamine (PEA), preferred substrate for MAO-B
T1 construct: preparing mitochondria from rat brain by homogenation in phosphate buffer; from tissue; host or cells: rat brain mitochondria
T1 sequence (P19643 1-520): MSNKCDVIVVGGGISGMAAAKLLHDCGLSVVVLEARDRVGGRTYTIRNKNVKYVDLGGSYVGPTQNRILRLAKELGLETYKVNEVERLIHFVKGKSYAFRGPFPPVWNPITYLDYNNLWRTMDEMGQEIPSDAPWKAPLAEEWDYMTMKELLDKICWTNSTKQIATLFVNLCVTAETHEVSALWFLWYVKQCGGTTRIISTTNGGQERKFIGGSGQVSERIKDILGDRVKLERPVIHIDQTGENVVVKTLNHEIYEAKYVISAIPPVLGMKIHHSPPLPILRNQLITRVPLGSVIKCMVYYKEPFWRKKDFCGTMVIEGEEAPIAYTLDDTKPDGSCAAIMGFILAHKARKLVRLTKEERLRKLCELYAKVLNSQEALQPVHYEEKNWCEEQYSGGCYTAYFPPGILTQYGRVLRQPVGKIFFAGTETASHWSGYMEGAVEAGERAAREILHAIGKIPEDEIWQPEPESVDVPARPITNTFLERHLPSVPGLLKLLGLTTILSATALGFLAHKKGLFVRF
From the text: (§1) The ability of a compound of structure 1 to inhibit MAO can be determined in vitro by the method of A. Christmas et al., Br. J. Pharmacol. 45, 490 (1972) in partially purified mitochondria from rat brain using ^14 C otyramine or ^14 C phenethylamine and ^14 C 5-HT as the substrate. The MAO inhibitory activity of a compound is expressed as the "IC50 " value, which is the molar concentration required to produce 50% inhibition of the enzyme. The IC50 values for certain compounds of structure 1 were determined using the above-described method, and the results are set forth in Table I.
(§2) The selectivity of a compound of structure 1 with respect to inhibition of MAO-A and MAO-B can be determined by preparing mitochondria from rat brain by homogenation in phosphate buffer (0.1 M, pH 7.2) followed by differential centrifugation. The mitochondria are suspended in the same buffer, the test compound is added at the desired concentration, and the system is incubated. At different time intervals, aliquots are taken and MAO activity is measured using ^14 C 5-hydroxytryptamine (5HT; a preferred substrate for MAO-A) or 14C -phenethylamine (PEA; a preferred substrate for MAO-B) as the substrates. The selectivity is expressed as the ratio of the inhibitory activity against MAO-B versus the inhibitory activity against MAO-A. (Zreika, McDonald, Bey, Palfreyman, J. Neurochem., 448-454 (1984)).

[3] = biological target: T2, MAO-A (Rattus norvegicus, UniProt P21396); assay: Inhibition of MAO - in vitro, partially purified mitochondria from rat brain, 14C 5-hydroxytryptamine (5-HT) substrate (MAO-A); type: biochemical; details: substrate 14C 5-hydroxytryptamine (5HT), preferred substrate for MAO-A
T2 construct: preparing mitochondria from rat brain by homogenation in phosphate buffer; from tissue; host or cells: rat brain mitochondria
T2 sequence (P21396 1-526): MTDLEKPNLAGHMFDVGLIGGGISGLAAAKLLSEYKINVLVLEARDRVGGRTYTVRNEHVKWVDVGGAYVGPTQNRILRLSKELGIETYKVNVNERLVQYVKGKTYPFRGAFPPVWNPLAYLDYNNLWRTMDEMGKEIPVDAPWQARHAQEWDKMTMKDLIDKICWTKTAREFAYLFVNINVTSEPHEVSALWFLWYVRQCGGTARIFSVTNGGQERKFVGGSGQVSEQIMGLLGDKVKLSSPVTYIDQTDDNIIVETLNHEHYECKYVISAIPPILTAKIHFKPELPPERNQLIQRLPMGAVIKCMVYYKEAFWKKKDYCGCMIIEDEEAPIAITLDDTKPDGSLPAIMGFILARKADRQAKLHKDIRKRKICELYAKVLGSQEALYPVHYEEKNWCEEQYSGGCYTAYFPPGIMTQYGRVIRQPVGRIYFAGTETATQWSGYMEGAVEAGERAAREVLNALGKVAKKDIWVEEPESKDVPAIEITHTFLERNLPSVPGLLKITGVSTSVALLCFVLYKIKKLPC
From the text: as §1, §2

[4] = biological target: T1, MAO-B; assay: Inhibition of MAO - ex vivo, brain mitochondria of orally dosed rats, 14C phenethylamine substrate (MAO-B); type: in vivo; details: po, brain mitochondrial fraction
Method: (§3) The test compound is administered orally (po) to rats and the animals are killed at various times after treatment. The brain is removed and a mitochondrial fraction, described in Example 12 is prepared. MAO activity is determined using ^14 C p-tyramine, as the substrate. Selectivity can be determined by repeating the above-described test using either ^14 C 5-hydroxytryptamine (for MAO-A) or ^14 C phenethylamine (for MAO-B) as the substrate for determining the % inhibition.

[5] = biological target: T2, MAO-A; assay: Inhibition of MAO - ex vivo, brain mitochondria of orally dosed rats, 14C 5-hydroxytryptamine substrate (MAO-A); type: in vivo; details: po, brain mitochondrial fraction
Method: as §3

[6] = cited from earlier work; for clinical antidepressant effect: man

Row | SMILES | preferential inhibition of MAO (in words) [1] | IC50 [2] [µM] | IC50 [3] [µM] | further results
1 | N[C@@H]1C[C@H]1c1ccccc1 (relative stereo) [tranylcypromine] | not preferential in their action upon MAO | – | – | –
2 | CCCC/C(=C\F)CN [(E)-2-Butyl-3-fluoroallylamine] | – | 0.002 | 0.11 | –
3 | CCCCCCC/C(=C\F)CN [(E)-2-Heptyl-3-fluoroallylamine] | – | 0.0045 | 0.06 | –
4 | CCCCCC/C(=C\F)CN [(E)-2-Hexyl-3-fluoroallylamine] | – | 0.007 | 0.17 | –
5 | CC(C)C/C(=C\F)CN [(E)-2-Isobutyl-3-fluoroallylamine] | – | 0.03 | 2.3 | ED50 [4]: 0.05 mg/kg; ED50 [5]: 0.8 mg/kg
6 | CC(C)/C(=C\F)CN [(E)-2-Isopropyl-3-fluoroallylamine] | – | 2.5 | 170 | –
7 | CCCCCCCCCCC/C(=C\F)CN [(E)-2-Undecyl-3-fluoroallylamine] | – | 0.5 | 0.75 | –
8 | CCC(C)/C(=C\F)CN (centres unmarked) [(E)-2-sec-Butyl-3-fluoroallylamine] | – | 7 | 170 | –
9 | C#CCN(C)[C@H](C)Cc1ccccc1 [L-deprenyl] | MAO-B is preferentially inhibited | – | – | cheese effect ([6]; low dosages where preferential inhibition of MAO-B occurs): not observed; clinical antidepressant effect [6]: clinically effective antidepressant agents; potentiation of L-DOPA in Parkinson's disease ([6]; treatment of Parkinson's disease): potentiate L-DOPA for the treatment of Parkinson's disease without producing peripheral side effects
10 | C#CCN(C)CCCOc1ccc(Cl)cc1Cl [clorgyline] | – | – | – | clinical antidepressant effect [6]: clinically effective antidepressant agents
11 | Cc1cc(C(=O)NNCc2ccccc2)no1 [isocarboxazid] | not preferential in their action upon MAO | – | – | –
12 | C#CCN(C)Cc1ccccc1 [pargyline] | MAO-B is preferentially inhibited | – | – | clinical antidepressant effect [6]: clinically effective antidepressant agents
13 | NNCCc1ccccc1 [phenelzine] | not preferential in their action upon MAO | – | – | –
